Measurements: ChEMBL document CHEMBL1201862, “PubChem BioAssay data set” (2004)
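Values below derive from 48-hour exposures of cells grown in 96-well plates, with endpoints linearly interpolated between the two concentrations bracketing the appropriate inhibition level. GI50: concentration for 50% inhibition of growth.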 The source made the active and inactive calls. No stated cut-off is given here; in the data, active = GI50 up to about 1.1 µM and inactive = higher.

Legend:
Assay in all cases: inhibition of tumour cell growth, NCI panel, 48 h
[1] = test system: BT-549
[2] = test system: OVCAR-3
[3] = test system: U-251
[4] = test system: SN12C
[5] = test system: UACC-257
[6] = test system: HCT-116
[7] = test system: NCI-H460
[8] = test system: SK-MEL-28
[9] = test system: A549
[10] = test system: KM12
[11] = test system: TK-10
[12] = test system: SK-MEL-5
[13] = test system: SF-539
[14] = test system: SNB-19
[15] = test system: ACHN
[16] = test system: SF-268
[17] = test system: IGROV-1
[18] = test system: Malme-3M
[19] = test system: SK-OV-3
[20] = test system: HCC 2998
[21] = test system: RXF 393
[22] = test system: MDA-MB-231
[23] = test system: NCI-H226
[24] = test system: T47D
[25] = test system: UACC-62
[26] = test system: HCT-15
[27] = test system: OVCAR-4
[28] = test system: MOLT-4
[29] = test system: Hs-578T
[30] = test system: MDA-N
[31] = test system: SNB-75
[32] = test system: OVCAR-8
[33] = test system: NCI-H23
[34] = test system: UO-31
[35] = test system: SF-295
[36] = test system: NCI-H522
[37] = test system: K562
[38] = test system: DU-145
[39] = test system: CAKI-1
[40] = test system: CCRF-CEM
[41] = test system: LOX IMVI
[42] = test system: SK-MEL-2
[43] = test system: A498
[44] = test system: MCF7
[45] = test system: 786-0
[46] = test system: SR
[47] = test system: RPMI-8226
[48] = test system: EKVX
[49] = test system: HOP-62
[50] = test system: OVCAR-5
[51] = test system: NCI/ADR-RES
[52] = test system: HOP-92
[53] = test system: M14
[54] = test system: MDA-MB-435
[55] = test system: COLO 205
[56] = test system: PC-3
[57] = test system: SW-620

Question: What does the source list for `O=c1[nH]c(=O)n(C2CC(O)C(CO)O2)c2nc3ccc4ccccc4c3nc12` (configuration not stated)?
Answer: GI50 [1]: 66.4 µM (inactive); GI50 [2]: > 100 µM (inactive); GI50 [3]: 33.7 µM (inactive); GI50 [4]: 51.2 µM (inactive); GI50 [5]: > 100 µM (inactive); GI50 [6]: > 100 µM (inactive); GI50 [7]: 21.3 µM (inactive); GI50 [8]: 94.2 µM (inactive); GI50 [9]: > 100 µM (inactive); GI50 [10]: > 100 µM (inactive); GI50 [11]: > 100 µM (inactive); GI50 [12]: 54.1 µM (inactive); GI50 [13]: 92.9 µM (inactive); GI50 [14]: 30.5 µM (inactive); GI50 [15]: > 100 µM (inactive); GI50 [16]: 55.8 µM (inactive); GI50 [17]: 47.4 µM (inactive); GI50 [18]: > 100 µM (inactive); GI50 [19]: > 100 µM (inactive); GI50 [20]: 59 µM (inactive); GI50 [21]: 56.6 µM (inactive); GI50 [22]: 26.9 µM (inactive); GI50 [23]: 17.8 µM (inactive); GI50 [24]: 93.8 µM (inactive); GI50 [25]: 56.9 µM (inactive); GI50 [26]: 62.2 µM; GI50 [27]: 67.9 µM (inactive); GI50 [28]: 24.5 µM (inactive); GI50 [29]: 55.5 µM (inactive); GI50 [30]: > 100 µM (inactive); GI50 [31]: 52.8 µM (inactive); GI50 [32]: 79.1 µM (inactive); GI50 [33]: > 100 µM (inactive); GI50 [34]: > 100 µM (inactive); GI50 [35]: 53.6 µM (inactive); GI50 [36]: 45.6 µM (inactive); GI50 [37]: 45.2 µM (inactive); GI50 [38]: > 100 µM (inactive); GI50 [39]: > 100 µM (inactive); GI50 [40]: 34.2 µM (inactive); GI50 [41]: 35.4 µM (inactive); GI50 [42]: 95.5 µM (inactive); GI50 [43]: > 100 µM (inactive); GI50 [44]: 46.3 µM (inactive); GI50 [45]: 74.3 µM (inactive); GI50 [46]: 24.9 µM (inactive); GI50 [47]: 22.8 µM (inactive); GI50 [48]: 72.4 µM (inactive); GI50 [49]: 32.4 µM (inactive); GI50 [50]: > 100 µM (inactive); GI50 [51]: > 100 µM (inactive); GI50 [52]: 25.6 µM (inactive); GI50 [53]: > 100 µM (inactive); GI50 [54]: > 100 µM (inactive); GI50 [55]: 64.9 µM (inactive); GI50 [56]: 73.8 µM (inactive); GI50 [57]: 99.8 µM (inactive)
